Test results taken from ChEMBL document CHEMBL5380812, “Structural Dynamics-Driven Discovery of Anticancer and Antimetastatic Effects of Diltiazem and Glibenclamide Targeting Urokinase Receptor” (J Med Chem, 2023).
The source made the active and inactive calls. The rule behind the calls is not given here.

Legend:
[1] = tested on: Urokinase plasminogen activator surface receptor (Homo sapiens), Q03405 [UNDEFINED MUTATION]; conditions: dose 100.0 µM
Description: Binding affinity to uPAR H47C/N259C (unknown origin) mutant assessed as response unit at 100 uM by surface plasmon resonance (SPR) analysis relative to control

HEK-293T = experiment: Antimetastatic activity against uPAR-overexpressing HEK293T cells assessed as suppression of invasive property incubated for 24 hrs by Crystal violet staining based - Transwell assay; format: functional, cell-based; conditions: Homo sapiens, dose 0-100 µM
CT26 [2] = experiment: Antiinvasive activity against mouse CT26 cells assessed as suppression of invasive property incubated for 24 hrs by Crystal violet staining based - Transwell assay; format: functional, cell-based; conditions: dose 0-100 µM
CT26 [3] = experiment: In vivo antimetastatic activity against mouse CT26-muPAR-mCherry cells intravenously homografted in Balb/c mouse lung metastatic model assessed as suppression of mCherry fluorescence in lung at 100 mg/kg, po every two days for 15 days relative to control; format: functional; conditions: time 15 day
CT26 [4] = experiment: In vivo antimetastatic activity against mouse CT-26-muPAR-mCherry cells intravenously homografted in Balb/c mouse lung metastatic model assessed as suppression of metastases of cancer cells around vessels at 100 mg/kg, po every two days for 15 days by histopathological analysis; format: functional, organism-based; conditions: time 15.0 day
Caco-2 = experiment: Antiinvasive activity against uPAR-negative human Caco-2 cells assessed as inhibition of invasive property at upto 100 uM incubated for 24 hrs by Crystal violet staining based - Transwell assay; format: functional, cell-based
CT26 [5] = experiment: In vivo antimetastatic activity against mouse CT-26-muPAR-mCherry cells intravenously homografted in Balb/c mouse lung metastatic model assessed as suppression of hyperplasia-induced lung weight increase at 30 to 100 mg/kg, po every two days for 15 days; format: functional, organism-based; conditions: dose 30-100 mg/kg, time 15.0 day
CT26 [6] = experiment: In vivo antimetastatic activity against mouse CT26-muPAR-mCherry cells intravenously homografted in Balb/c mouse lung metastatic model assessed as suppression of mCherry fluorescence in lung at 30 mg/kg, po every two days for 15 days relative to control; format: functional; conditions: time 15 day
CT26 [7] = experiment: Antiinvasive activity against mouse CT26-muPAR-mCherry cells assessed as suppression of invasive property incubated for 24 hrs by Crystal violet staining based - Transwell assay; format: functional, cell-based; conditions: dose 0-100 µM
[8] = Toxicity in Balb/c mouse homografted with mouse CT-26-muPAR-mCherry cells assessed as vascular hyperemia at 100 mg/kg, po every two days for 15 days; format: organism-based; conditions: in vivo, 360 h, time 15 day
MDA-MB-231 = experiment: Antiinvasive activity against human MDA-MB-231 cells expressing moderate uPAR assessed as inhibition of invasive property at upto 100 uM incubated for 24 hrs by Crystal violet staining based - Transwell assay; format: functional, cell-based
[9] = Inhibition of human recombinant […]/uPAR (unknown origin) interaction measured after 2 hrs by ELISA
HUVEC = experiment: Antiangiogenic activity against HUVEC cells assessed as inhibition of formation of capillary-like polygons/fork-like branches in serum free medium at 100 uM; format: functional, cell-based; conditions: Homo sapiens
[10] = Toxicity in Balb/c mouse homografted with mouse CT-26-muPAR-mCherry cells assessed as adverse effect at 100 mg/kg, po every two days for 15 days; format: organism-based; conditions: in vivo, 360 h, time 15 day
[11] = target: Urokinase plasminogen activator surface receptor (Homo sapiens, UniProt Q03405, H47C/N259C); experiment: Binding affinity to uPAR H47C/N259C (unknown origin) mutant assessed as equilibrium dissociation constant by surface plasmon resonance (SPR) analysis relative to control
CT26 [12] = experiment: In vivo antitumor activity against mouse CT26 cells subcutaneously homografted in Balb/c mouse model assessed as tumor weight at 100 mg/kg, po every two days for 14 days relative to control; format: functional; conditions: CT26, 336 h, time 14 day
MCF7 [13] = experiment: Antiinvasive activity against short hairpin RNA sequence of uPA containing vector transfected human MCF7-shuPA cells assessed as suppression of invasive property at upto 100 uM incubated for 24 hrs by Crystal violet staining based - Transwell assay; format: functional, cell-based
CT26 [14] = experiment: In vivo antitumor activity against mouse CT26 cells subcutaneously homografted in Balb/c mouse model assessed as suppression of tumor growth at 100 mg/kg, po every two days for 14 days; format: functional, organism-based; conditions: time 14.0 day
PC-3 [15] = experiment: Cytotoxicity against human PC-3 cells assessed as survival rate without matrigel at upto 100 uM; format: toxicity, cell-based; conditions: pc-3, 100 µM
CT26 [16] = experiment: In vivo antimetastatic activity against mouse CT-26-muPAR-mCherry cells intravenously homografted in Balb/c mouse lung metastatic model assessed as suppression of hyperplastic nodules on the pleural surface in lung at 30 to 100 mg/kg, po every two days for 15 days; format: functional, organism-based; conditions: dose 30-100 mg/kg, time 15.0 day
MCF7 [17] = experiment: Antiinvasive activity against empty vector transfected human MCF7 cells assessed as suppression of invasive property at upto 100 uM incubated for 24 hrs by Crystal violet staining based - Transwell assay; format: functional, cell-based
[18] = Toxicity in Balb/c mouse homografted with mouse CT26 cells assessed as body weight at 100 mg/kg, po every two days for 14 days; format: organism-based; conditions: in vivo, 336 h, time 14 day
PC-3 [19] = experiment: Inhibition of cell migration in human PC-3 cells assessed as wound healing measured upto 100 uM; format: cell-based
PC-3 [20] = experiment: Antiinvasive activity against human PC-3 cells expressing high uPAR assessed as inhibition of invasive property incubated for 24 hrs by Crystal violet staining based - Transwell assay; format: functional, cell-based; conditions: dose 0-100 µM
PC-3 [21] = experiment: Antiinvasive activity against human PC-3 cells expressing high uPAR assessed as inhibition of invasive property without matrigel at upto 100 uM incubated for 24 hrs by crystal violet staining based - Transwell assay; format: functional, cell-based
CT26 [22] = experiment: In vivo antitumor activity against mouse CT26 cells subcutaneously homografted in Balb/c mouse model assessed as suppression of tumor growth at 300 mg/kg, po every two days for 14 days; format: functional, organism-based; conditions: time 14.0 day
[23] = Toxicity in Balb/c mouse homografted with mouse CT-26-muPAR-mCherry cells assessed as adverse effect at 300 mg/kg, po every two days for 15 days; format: organism-based; conditions: in vivo, 360 h, time 15 day
CT26 [24] = experiment: In vivo antimetastatic activity against mouse CT-26-muPAR-mCherry cells intravenously homografted in Balb/c mouse lung metastatic model assessed as suppression of hyperplasia-induced lung weight increase at 30 to 100 to 300 mg/kg, po every two days for 15 days; format: functional, organism-based; conditions: dose 100-300 mg/kg, time 15.0 day
CT26 [25] = experiment: In vivo antimetastatic activity against mouse CT26-muPAR-mCherry cells intravenously homografted in Balb/c mouse lung metastatic model assessed as suppression of mCherry fluorescence in lung at 300 mg/kg, po every two days for 15 days relative to control; format: functional; conditions: time 15 day
CT26 [26] = experiment: In vivo antitumor activity against CT26 cells subcutaneously homografted in Balb/c mouse model assessed as tumor weight at 300 mg/kg, po every two days for 14 days relative to control; format: functional; conditions: CT26, 336 h, time 14 day
CT26 [27] = experiment: In vivo antimetastatic activity against mouse CT-26-muPAR-mCherry cells intravenously homografted in Balb/c mouse lung metastatic model assessed as suppression of metastases of cancer cells around vessels at 300 mg/kg, po every two days for 15 days by histopathological analysis; format: functional, organism-based; conditions: time 15.0 day
CT26 [28] = experiment: In vivo antimetastatic activity against mouse CT-26-muPAR-mCherry cells intravenously homografted in Balb/c mouse lung metastatic model assessed as suppression of hyperplastic nodules on the pleural surface in lung at 100 to 300 mg/kg, po every two days for 15 days; format: functional, organism-based; conditions: dose 100-300 mg/kg, time 15.0 day
[29] = Toxicity in Balb/c mouse homografted with mouse CT26 cells assessed as body weight at 300 mg/kg, po every two days for 14 days; format: organism-based; conditions: in vivo, 336 h, time 14 day

Sequence of Urokinase plasminogen activator surface receptor (Homo sapiens), Q03405 [UNDEFINED MUTATION] (Q03405 whole entry, looked up, stated change not applied): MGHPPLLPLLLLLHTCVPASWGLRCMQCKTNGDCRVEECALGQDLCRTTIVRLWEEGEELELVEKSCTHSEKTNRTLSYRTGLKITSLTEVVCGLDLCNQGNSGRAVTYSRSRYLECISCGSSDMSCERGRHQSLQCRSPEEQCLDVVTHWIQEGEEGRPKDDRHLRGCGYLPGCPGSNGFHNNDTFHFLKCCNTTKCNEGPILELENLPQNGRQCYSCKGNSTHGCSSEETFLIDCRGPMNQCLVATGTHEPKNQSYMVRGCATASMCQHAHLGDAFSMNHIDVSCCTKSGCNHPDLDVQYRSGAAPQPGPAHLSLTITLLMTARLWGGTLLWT
Sequence of Urokinase plasminogen activator surface receptor (Q03405 23-305 H69C/N281C limits assumed): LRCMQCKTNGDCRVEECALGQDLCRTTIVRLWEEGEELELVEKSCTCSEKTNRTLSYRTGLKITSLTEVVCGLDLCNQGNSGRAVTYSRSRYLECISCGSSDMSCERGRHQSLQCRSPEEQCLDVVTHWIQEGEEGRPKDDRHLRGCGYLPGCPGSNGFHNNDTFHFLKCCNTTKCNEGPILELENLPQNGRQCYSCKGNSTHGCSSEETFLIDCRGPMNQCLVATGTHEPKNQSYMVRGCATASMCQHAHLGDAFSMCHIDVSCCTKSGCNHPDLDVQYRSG

SMILES: CC(=O)OCC(CCn1cnc2cnc(N)nc21)COC(C)=O
- RU [1]: -4

SMILES: CC(C)(C)c1ccc(C(=O)CCCN2CCC(OC(c3ccccc3)c3ccccc3)CC2)cc1
- RU [1]: 1.5

SMILES: CC(C)=CCOc1c2occc2cc2ccc(=O)oc12
- RU [1]: 1

SMILES: CC(CCc1ccc(O)cc1)NCCc1ccc(O)c(O)c1 (centres undefined)
- RU [1]: 5.5

SMILES: CCCCC1C(=O)N(c2ccccc2)N(c2ccccc2)C1=O
- RU [1]: 2.7

SMILES: CCCCCOC(=O)Nc1nc(=O)n([C@@H]2O[C@@H](O)[C@@H](O)[C@H]2O)cc1F
- RU [1]: 1

SMILES: CCN(CC)CCCC(C)Nc1c2ccc(Cl)cc2nc2ccc(OC)cc12 (centres undefined)
- RU [1]: 20

SMILES: CCN(CC)CCOC(=O)c1ccc(N)cc1
- RU [1]: 17

SMILES: CCN[C@H]1CN(CCCOC)S(=O)(=O)c2sc(S(N)(=O)=O)cc21
- RU [1]: -1

SMILES: CCOC(=O)Nc1ccc(NCc2ccc(F)cc2)nc1N
- RU [1]: 15

SMILES: CCc1c(C)[nH]c2c1C(=O)C(CN1CCOCC1)CC2 (centres undefined)
- RU [1]: 8

SMILES: CCc1c(C)[nH]c2c1C(=O)CC(CN1CCOCC1)C2 (centres undefined)
- RU [1]: 11

SMILES: CN(C)CCC=C1c2ccccc2CCc2ccccc21
- RU [1]: 11

SMILES: CN(C)CCCC1(c2ccc(F)cc2)OCc2cc(C#N)ccc21 (centres undefined)
- RU [1]: 7

SMILES: CN/C(=N\CCSCc1nc[nH]c1C)NC#N
- RU [1]: -3

SMILES: CNC(=C[N+](=O)[O-])NCCSCc1ccc(CN(C)C)o1
- RU [1]: 0

SMILES: CNCC(O)c1ccc(O)cc1 (centres undefined)
- RU [1]: 0.5

SMILES: COC(=O)[C@@H](N)CCCNC(=N)N[N+](=O)[O-]
- RU [1]: 0

SMILES: COc1ccc(CN(CCN(C)C)c2ccccc2)cc1
- RU [1]: 1.7

SMILES: Cc1ccc(S(=O)(=O)N[C@@H](CCCCN)C(=O)CCl)cc1
- RU [1]: 0

SMILES: NC(CO)C(=O)NNCc1ccc(O)c(O)c1O (centres undefined)
- RU [1]: 0

SMILES: O=C(/C=C/c1ccc(O)c(O)c1)OCCc1ccccc1
- RU [1]: 8

SMILES: O=C(O)c1cccnc1Nc1cccc(C(F)(F)F)c1
- RU [1]: 7

SMILES: O=C1CC2(CCCC2)CC(=O)N1CCCCN1CCN(c2ncccn2)CC1
- RU [1]: 1

SMILES: COc1ccc([C@@H]2Sc3ccccc3N(CCN(C)C)C(=O)[C@@H]2OC(C)=O)cc1 [DILTIAZEM]
- Activity (HEK-293T): Dose-Dependent Effect
- Activity (CT26 [2]): Dose-Dependent Effect
- Activity (CT26 [3]): 76%
- Activity (CT26 [4]): Active
- Activity (Caco-2): inactive
- Activity (CT26 [5]): Active
- Activity (CT26 [6]): 61%
- Activity (CT26 [7]): Dose-Dependent Effect
- Activity [8]: Toxic
- Activity (MDA-MB-231): Active
- IC50 [9]: 58.6 µM
- Activity (HUVEC): Active
- Activity [10]: Non-Toxic
- Kd [11]: 39.2 µM
- inhibition in vivo at 100 mg/kg (CT26 [12]): 73.2%
- Activity (MCF7 [13]): Active
- Activity (CT26 [14]): Active
- Activity (PC-3 [15]): Non-Toxic
- Activity (CT26 [16]): Active
- Activity (MCF7 [17]): Active
- Activity [18]: Non-Toxic
- Activity (PC-3 [19]): Active
- RU [1]: 12
- Activity (PC-3 [20]): Dose-Dependent Effect
- Activity (PC-3 [21]): Active

SMILES: COc1ccc(Cl)cc1C(=O)NCCc1ccc(S(=O)(=O)NC(=O)NC2CCCCC2)cc1 [GLYBURIDE]
- Activity (HEK-293T): Dose-Dependent Effect
- Activity (CT26 [2]): Dose-Dependent Effect
- Activity (CT26 [3]): 70%
- Activity (Caco-2): inactive
- Activity (CT26 [7]): Dose-Dependent Effect
- Activity (MDA-MB-231): Active
- IC50 [9]: 69.5 µM
- Activity (HUVEC): Active
- Activity (CT26 [22]): Active
- Kd [11]: 40.4 µM
- Activity (MCF7 [13]): Active
- Activity (PC-3 [15]): Non-Toxic
- Activity [23]: Non-Toxic
- Activity (CT26 [24]): Active
- Activity (MCF7 [17]): Active
- Activity (CT26 [25]): 83%
- inhibition in vivo at 300 mg/kg (CT26 [26]): 62.8%
- Activity (CT26 [27]): Active
- Activity (PC-3 [19]): Active
- RU [1]: 33
- Activity (PC-3 [20]): Dose-Dependent Effect
- Activity (PC-3 [21]): Active
- Activity (CT26 [28]): Active
- Activity [29]: Non-Toxic

SMILES: O=C(CCCN1CCC(O)(c2ccc(Cl)cc2)CC1)c1ccc(F)cc1 [HALOPERIDOL]
- Kd [11]: 41.2 µM
- RU [1]: 10

SMILES: CNCCCC12CCC(c3ccccc31)c1ccccc12 [MAPROTILINE]
- Kd [11]: 79.7 µM
- RU [1]: 13

SMILES: O=C(O)CCc1nc(-c2ccccc2)c(-c2ccccc2)o1 [OXAPROZIN]
- Kd [11]: 114 µM
- RU [1]: 20
